Among the data in PubChem BioAssay (NCI) are TGI values, retold here.

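Five compound concentrations were applied to cells in 96-well plates for 48 hours; endpoints were derived by simple linear interpolation of the resulting dose-response curve. TGI: total growth inhibition.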

Some test systems named below: U251 CNS; SNB-75 CNS; SK-MEL-5 melanoma; OVCAR-8 ovarian; SK-OV-3 ovarian; SF-268 CNS; DU-145 prostate; HOP-62 NSCLC; NCI-H460 lung; UO-31 renal.
Common to all, as to assay: inhibition of tumour cell growth, NCI panel, 48 h

As to `N#CC1(C#N)NC(c2ccccc2)C(C#N)(C#N)NC1c1ccccc1` (stereo not given), the TGI with U251 CNS, with SNB-75 CNS, in the assay with SK-MEL-5 melanoma, with OVCAR-8 ovarian, with SK-OV-3 ovarian and in the assay on SF-268 CNS was more than 100 µM throughout. Further, the TGI in the assay on DU-145 prostate, with HOP-62 NSCLC, in the assay with NCI-H460 lung and with UO-31 renal was more than 100 µM each time.

Take `COc1cc2c(c(OC)c1OC)C(=O)[C@@H]1[C@H]2N1C(=O)NCCCl`: the TGI in the assay on U251 CNS, in the assay on SNB-75 CNS, in the assay on SK-MEL-5 melanoma, with OVCAR-8 ovarian, in the assay on SK-OV-3 ovarian and in the assay with SF-268 CNS was more than 100 µM in each case. Moreover, the TGI in the assay on DU-145 prostate, with HOP-62 NSCLC, in the assay on NCI-H460 lung and with UO-31 renal was more than 100 µM each time.

As for `CC(O)C1(CNc2cc(Cl)nc(N)n2)CCCCC1` (stereo not given), the TGI in the assay with U251 CNS, in the assay on SNB-75 CNS, in the assay with SK-MEL-5 melanoma, in the assay with OVCAR-8 ovarian, with SK-OV-3 ovarian and in the assay on SF-268 CNS was more than 100 µM throughout. The TGI in the assay with DU-145 prostate, in the assay on HOP-62 NSCLC, in the assay with NCI-H460 lung and in the assay with UO-31 renal was more than 100 µM each time.

As to `CC(Oc1ccccc1Cl)C(=O)NN1C(=O)CC(=O)N(c2ccccc2)C1=S` (stereo not given), the TGI in the assay on U251 CNS, with SNB-75 CNS, in the assay on SK-MEL-5 melanoma, in the assay with OVCAR-8 ovarian, with SK-OV-3 ovarian and with SF-268 CNS was more than 100 µM throughout. Moreover, the TGI in the assay on DU-145 prostate, with HOP-62 NSCLC, in the assay on NCI-H460 lung and with UO-31 renal was more than 100 µM in each case.

As to `O=C(Cc1ccccc1F)NC1=C(Cl)C(=O)c2ccccc2C1=O`, the TGI in the assay on U251 CNS worked out at 4.67 µM; in the assay on SNB-75 CNS it was 8.06 µM; in the assay on SK-MEL-5 melanoma, 4.37 µM; in the assay with OVCAR-8 ovarian it was 9.36 µM; with SK-OV-3 ovarian, 13.7 µM; in the assay on SF-268 CNS, 15.1 µM. Besides, the TGI in the assay with DU-145 prostate came to 21.8 µM; with HOP-62 NSCLC, 24.2 µM; in the assay on NCI-H460 lung, 21.7 µM; with UO-31 renal, 8.98 µM.

Take `CC1(C)[C@@H]2C[C@H]1[C@@H](Cc1cccc(C[C@H]3c4cc(-c5ccccn5)ncc4[C@H]4C[C@@H]3C4(C)C)c1)c1cc(-c3ccccn3)ncc12`: the TGI in the assay with U251 CNS is more than 100 µM; with SNB-75 CNS, more than 100 µM; in the assay with SK-MEL-5 melanoma it was more than 38 µM; in the assay with OVCAR-8 ovarian, more than 43.9 µM; with SK-OV-3 ovarian it was more than 100 µM; with SF-268 CNS, more than 100 µM. Also, the TGI with DU-145 prostate was more than 24.7 µM; in the assay on HOP-62 NSCLC, more than 100 µM; in the assay on NCI-H460 lung it was more than 33.4 µM; with UO-31 renal, 8.82 µM.

For `C1CSCCSCCCSC2CCCCC2SC1` (stereo not given), the TGI in the assay with U251 CNS, in the assay with SNB-75 CNS, in the assay on SK-MEL-5 melanoma, in the assay on OVCAR-8 ovarian, in the assay on SK-OV-3 ovarian and with SF-268 CNS was more than 100 µM each time. The TGI in the assay with DU-145 prostate, with HOP-62 NSCLC, in the assay with NCI-H460 lung and in the assay on UO-31 renal was more than 100 µM throughout.

Consider `COc1ccc([N+](=O)[O-])c2c(NCCCN(C)C)ccnc12`, for which the TGI in the assay with U251 CNS was 23.6 µM; in the assay on SNB-75 CNS, 15.8 µM; in the assay on SK-MEL-5 melanoma it was 5.22 µM; in the assay with OVCAR-8 ovarian, more than 48.5 µM; with SK-OV-3 ovarian, 43.2 µM; in the assay on SF-268 CNS it was 28.9 µM. Also, the TGI in the assay on DU-145 prostate is 29.1 µM; in the assay with HOP-62 NSCLC, 15.6 µM; in the assay on NCI-H460 lung, 5.63 µM; with UO-31 renal it was 17.3 µM.

Consider `S=C(NCCc1ccccn1)N/N=C/c1ccccn1`, for which the TGI in the assay with U251 CNS is more than 100 µM; with SNB-75 CNS, more than 100 µM; in the assay with SK-MEL-5 melanoma it was 2.69 µM; in the assay on OVCAR-8 ovarian, more than 100 µM; with SK-OV-3 ovarian, more than 100 µM; with SF-268 CNS, more than 100 µM. Moreover, the TGI is more than 100 µM in the assay on DU-145 prostate, 0.0696 µM with HOP-62 NSCLC, 4.66 µM with NCI-H460 lung and more than 49.1 µM with UO-31 renal.

As to `CC1(C)[C@@H]2CC[C@]1(C)[C@H](OC(=O)/C=C/c1ccccc1)C2`, the TGI amounted to 32.4 µM in the assay with U251 CNS; 33.3 µM with SNB-75 CNS; 30.5 µM in the assay with SK-MEL-5 melanoma; 36.5 µM in the assay on OVCAR-8 ovarian; 84.2 µM in the assay on SK-OV-3 ovarian; 33.9 µM in the assay with SF-268 CNS. Moreover, the TGI with DU-145 prostate is 47.9 µM; with HOP-62 NSCLC, 63.1 µM; with NCI-H460 lung it was more than 100 µM; with UO-31 renal, 34 µM.

`O=c1c2ccccc2[nH]n1Cc1ccccc1`: the TGI in the assay with U251 CNS, with SNB-75 CNS, in the assay on SK-MEL-5 melanoma, with OVCAR-8 ovarian, in the assay on SK-OV-3 ovarian and with SF-268 CNS was more than 100 µM in each case. For the same compound, the TGI in the assay on DU-145 prostate, in the assay on HOP-62 NSCLC, with NCI-H460 lung and in the assay with UO-31 renal was more than 100 µM in each case.
